Laboratory results: patent US10479819B2 (priority 2014, dated 2019)
Where two headings read alike, the source gives them in different places. Starred links: 1 amine or outer side, 2 acyl side, 3 side chain; linkers in the order of their positions; H or OH if unused. Non-standard residues stand in square brackets, D forms with d. Residues, ends and D or L forms follow the SMILES beside them. Groups on a side chain read outwards from the residue. *: point of attachment. C18 diacid = O=C(O)CCCCCCCCCCCCCCCCC(=O)*; γGlu = O=C(O)[C@H](CCC(=O)[*:2])N[*:1]; PEG2 = NCCOCCOCCC(=O)O

Experiments:
[1] = target: T1, human GLP-1R (Homo sapiens, UniProt P43220); assay: In vitro activity on GLP-1R, CRE-luciferase HEK-293 cells; format: cell-based; conditions: for GLP-1R/GCGR: ratio of EC50 GLP-1R to EC50 GCGR
T1 construct: expressed in transfected cells
Experimental: (§1) 5000 of HEK-293 cells, which are used in CRE-luciferase system and express human GCGR or GLP-1R stably, were inoculated into 384 well plates according to […] DMEM/10% FBS media/well. […] After incubation, […] of luciferase reagent was added directly to each plate and mixed gently for 2 minutes. The plates were placed into an Elmer Perkin plate reader for reading. Concentration curve of the compound was made by drawing software Prism 5, and the EC50 value was calculated.

[2] = Pharmacokinetic analysis after IV or SC administration in male CD1 mice; conditions: for Tmax / half-life: iv
Experimental: Pharmacokinetic parameters of the drugs were calculated by methods of model dependence (for data obtained from IV) and model independence (data obtained from SC).

[3] = system: DIO mice; assay: Body weight reduction in DIO (obese) mice; format: in vivo; conditions: 250 μg/kg SC daily, day 11 to day 30, DIO mice; for body weight compared with normal saline group: P<0.05
Text: Forty 25-week-old DIO mice (Nanjing University model animal research center) were randomly divided into five groups (compound 4, 5, 6, 7, and normal saline group), 8 in each group, having no difference in the basis weight of each group.

[4] = system: male C57B1/6J mice; assay: Oral glucose tolerance test in male C57B1/6J mice; format: in vivo; conditions: 250 μg/kg; for AUC of blood glucose in all four OGTT curve periods (0-480 min) compared with carrier (PBS): P<0.05; for effect on oral glucose tolerance: male C57B1/6J mice
Experimental: 12-16 week-old male C57B1/6J mice (Nanjing University model animal research center) were randomly divided into groups 8 in each group, according to similar blood glucose (assessed by the blood samples obtained from the tail tip). After fasting (for 6 hours), the animals were administrated, and about 4 hours later, initial blood samples (fasting blood glucose level) were taken. Subsequently, the animals were administrated with an oral dose of glucose, and then put back into their cages (t=0). Blood glucose was measured at t=15 minutes, t=30 minutes, t=60 minutes, t=90 minutes and t=120 minutes. And then the animals were administrated with an oral dose of glucose again, and blood glucose was tracked until 8 hours.

[5] = target: T2, human GCGR (Homo sapiens, UniProt P47871); assay: In vitro activity on GCGR, CRE-luciferase HEK-293 cells; format: cell-based; conditions: read-out: GCGR (EC50)
T2 construct: expressed in transfected cells
Experimental: as §1

T1 sequence (P43220 24-463): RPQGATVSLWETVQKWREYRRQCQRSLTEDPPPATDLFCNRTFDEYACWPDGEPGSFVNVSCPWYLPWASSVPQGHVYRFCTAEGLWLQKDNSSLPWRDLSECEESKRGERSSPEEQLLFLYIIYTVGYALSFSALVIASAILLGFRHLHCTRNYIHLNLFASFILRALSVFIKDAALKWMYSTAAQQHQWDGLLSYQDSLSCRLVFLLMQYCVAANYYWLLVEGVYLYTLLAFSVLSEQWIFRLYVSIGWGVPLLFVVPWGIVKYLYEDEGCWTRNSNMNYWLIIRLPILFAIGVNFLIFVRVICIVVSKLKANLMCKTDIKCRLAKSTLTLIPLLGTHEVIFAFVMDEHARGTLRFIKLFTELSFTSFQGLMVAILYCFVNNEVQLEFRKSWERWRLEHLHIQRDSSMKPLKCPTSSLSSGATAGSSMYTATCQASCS
T2 sequence (P47871 26-477): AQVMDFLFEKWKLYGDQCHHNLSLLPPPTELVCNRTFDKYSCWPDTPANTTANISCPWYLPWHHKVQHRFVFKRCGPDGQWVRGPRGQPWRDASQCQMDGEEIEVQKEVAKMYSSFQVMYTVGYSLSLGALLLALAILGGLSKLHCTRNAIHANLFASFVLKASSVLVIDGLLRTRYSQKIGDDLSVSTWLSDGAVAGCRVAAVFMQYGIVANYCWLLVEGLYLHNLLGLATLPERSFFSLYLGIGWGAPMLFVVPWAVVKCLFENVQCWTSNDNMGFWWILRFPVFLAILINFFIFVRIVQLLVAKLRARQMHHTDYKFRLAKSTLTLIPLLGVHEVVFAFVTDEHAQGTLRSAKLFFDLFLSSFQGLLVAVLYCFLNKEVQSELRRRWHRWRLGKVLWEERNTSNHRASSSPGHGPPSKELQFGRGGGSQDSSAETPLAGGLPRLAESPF

CC[C@H](C)[C@H](NC(=O)[C@H](Cc1ccccc1)NC(=O)[C@H](CCC(=O)O)NC(=O)[C@H](CCCCNC(=O)CCOCCOCCNC(=O)CCOCCOCCNC(=O)CC[C@H](NC(=O)CCCCCCCCCCCCCCCCC(=O)O)C(=O)O)NC(=O)[C@H](C)NC(=O)[C@H](C)NC(=O)[C@H](CCCCN)NC(=O)[C@H](CCC(=O)O)NC(=O)[C@H](CC(=O)O)NC(=O)[C@H](CC(C)C)NC(=O)[C@H](Cc1ccc(O)cc1)NC(=O)[C@H](CCCCN)NC(=O)[C@H](CO)NC(=O)[C@H](Cc1ccc(O)cc1)NC(=O)[C@H](CC(=O)O)NC(=O)[C@H](CO)NC(=O)[C@@H](NC(=O)[C@H](Cc1ccccc1)NC(=O)[C@@H](NC(=O)CNC(=O)[C@H](CCC(N)=O)NC(=O)[C@@H](CO)NC(=O)[C@@H](N)Cc1c[nH]cn1)[C@@H](C)O)[C@@H](C)O)C(=O)N[C@@H](CCC(=O)O)C(=O)N[C@@H](Cc1c[nH]c2ccccc12)C(=O)N[C@@H](CC(C)C)C(=O)N[C@@H](CC(C)C)C(=O)N[C@@H](CC(N)=O)C(=O)NCC(=O)NCC(=O)N1CCC[C@H]1C(=O)N[C@@H](CO)C(=O)N[C@@H](CO)C(=O)NCC(=O)N[C@@H](C)C(=O)N1CCC[C@H]1C(=O)N1CCC[C@H]1C(=O)N1CCC[C@H]1C(=O)N[C@@H](CO)C(N)=O [Compound 4] (H-H[dS]QGTFTSDYSKYLDEKAAK([PEG2-PEG2-γGlu-C18 diacid])EFIEWLLNGGPSSGAPPPS-NH2)
EC50 [1]: 0.13 nM
GLP-1R/GCGR [1]: 0.3
clinical adverse effect ([2]; IV or SC route, male CD1 mice): no clinical adverse effect
Tmax ([2]; mouse, in vivo): ~12 h
half-life ([2]; mouse, in vivo): 4 to 6 h
weight loss [3]: about 20%
body weight compared with normal saline group [3]: significantly lower
AUC of blood glucose in all four OGTT curve periods (0-480 min) compared with carrier (PBS) [4]: significantly decreased
effect on oral glucose tolerance [4]: significantly reduced the oral glucose tolerance

CSCC[C@H](NC(=O)[C@H](CC(C)C)NC(=O)[C@H](Cc1c[nH]c2ccccc12)NC(=O)[C@H](CCC(N)=O)NC(=O)[C@@H](NC(=O)[C@H](Cc1ccccc1)NC(=O)[C@H](CC(=O)O)NC(=O)[C@H](CCC(N)=O)NC(=O)[C@H](C)NC(=O)[C@H](CCCNC(=N)N)NC(=O)[C@H](CCCNC(=N)N)NC(=O)C(C)(C)NC(=O)[C@H](CC(=O)O)NC(=O)[C@H](CC(C)C)NC(=O)[C@H](Cc1ccc(O)cc1)NC(=O)[C@H](CCCCN)NC(=O)[C@H](CO)NC(=O)[C@H](CCCCNC(=O)CCOCCOCCNC(=O)CCOCCOCCNC(=O)CCCCCCCCCCCCCCCCC(=O)O)NC(=O)[C@H](CC(=O)O)NC(=O)[C@H](CO)NC(=O)[C@@H](NC(=O)[C@H](Cc1ccccc1)NC(=O)[C@@H](NC(=O)CNC(=O)[C@H](CCC(N)=O)NC(=O)[C@@H](CO)NC(=O)[C@@H](N)Cc1c[nH]cn1)[C@@H](C)O)[C@@H](C)O)C(C)C)C(=O)N[C@@H](CC(N)=O)C(=O)N[C@H](C(=O)NCC(=O)NCC(=O)N1CCC[C@H]1C(=O)N[C@@H](CO)C(=O)N[C@@H](CO)C(=O)NCC(=O)N[C@@H](C)C(=O)N1CCC[C@H]1C(=O)N1CCC[C@H]1C(=O)N1CCC[C@H]1C(=O)N[C@@H](CO)C(N)=O)[C@@H](C)O [Compound 6]
GLP-1R/GCGR [1]: 0.3
clinical adverse effect ([2]; mouse, in vivo): no clinical adverse effect
Tmax ([2]; mouse, in vivo): ~12 h
half-life ([2]; mouse, in vivo): 4 to 6 h
peak time ([2]; mouse, in vivo, sc): more than 12 hours
weight loss [3]: about 20%
body weight compared with normal saline group [3]: significantly lower
AUC of blood glucose in all four OGTT curve periods (0-480 min) compared with carrier (PBS) [4]: significantly decreased
effect on oral glucose tolerance [4]: significantly reduced the oral glucose tolerance

CSCC[C@H](NC(=O)[C@H](CC(C)C)NC(=O)[C@H](Cc1c[nH]c2ccccc12)NC(=O)[C@H](CCC(N)=O)NC(=O)[C@@H](NC(=O)[C@H](Cc1ccccc1)NC(=O)[C@H](CC(=O)O)NC(=O)[C@H](CCC(N)=O)NC(=O)[C@H](C)NC(=O)[C@H](CCCNC(=N)N)NC(=O)[C@H](CCCNC(=N)N)NC(=O)C(C)(C)NC(=O)[C@H](CC(=O)O)NC(=O)[C@H](CC(C)C)NC(=O)[C@H](Cc1ccc(O)cc1)NC(=O)[C@H](CCCCN)NC(=O)[C@H](CO)NC(=O)[C@H](CCCCNC(=O)CCOCCOCCNC(=O)CCOCCOCCNC(=O)CC[C@H](NC(=O)CCCCCCCCCCCCCCCCC(=O)O)C(=O)O)NC(=O)[C@H](CC(=O)O)NC(=O)[C@H](CO)NC(=O)[C@@H](NC(=O)[C@H](Cc1ccccc1)NC(=O)[C@@H](NC(=O)CNC(=O)[C@H](CCC(N)=O)NC(=O)[C@@H](CO)NC(=O)[C@@H](N)Cc1c[nH]cn1)[C@@H](C)O)[C@@H](C)O)C(C)C)C(=O)N[C@@H](CC(N)=O)C(=O)N[C@H](C(=O)NCC(=O)NCC(=O)N1CCC[C@H]1C(=O)N[C@@H](CO)C(=O)N[C@@H](CO)C(=O)NCC(=O)N[C@@H](C)C(=O)N1CCC[C@H]1C(=O)N1CCC[C@H]1C(=O)N1CCC[C@H]1C(=O)N[C@@H](CO)C(N)=O)[C@@H](C)O [Compound 8]
GLP-1R/GCGR [1]: 1.1
EC50 [5]: 0.18 nM

CSCC[C@H](NC(=O)[C@H](CC(C)C)NC(=O)[C@H](Cc1c[nH]c2ccccc12)NC(=O)[C@H](CCC(N)=O)NC(=O)[C@@H](NC(=O)[C@H](Cc1ccccc1)NC(=O)[C@H](CC(=O)O)NC(=O)[C@H](CCC(N)=O)NC(=O)[C@H](C)NC(=O)[C@H](CCCNC(=N)N)NC(=O)[C@H](CCCNC(=N)N)NC(=O)[C@H](CCCCNC(=O)CCOCCOCCNC(=O)CCOCCOCCNC(=O)CCCCCCCCCCCCCCCCC(=O)O)NC(=O)[C@H](CC(=O)O)NC(=O)[C@H](CC(C)C)NC(=O)[C@H](Cc1ccc(O)cc1)NC(=O)[C@H](CCCCN)NC(=O)[C@H](CO)NC(=O)[C@H](Cc1ccc(O)cc1)NC(=O)[C@H](CC(=O)O)NC(=O)[C@H](CO)NC(=O)[C@@H](NC(=O)[C@H](Cc1ccccc1)NC(=O)[C@@H](NC(=O)CNC(=O)[C@H](CCC(N)=O)NC(=O)[C@@H](CO)NC(=O)[C@@H](N)Cc1c[nH]cn1)[C@@H](C)O)[C@@H](C)O)C(C)C)C(=O)N[C@@H](CC(N)=O)C(=O)N[C@H](C(=O)NCC(=O)NCC(=O)N1CCC[C@H]1C(=O)N[C@@H](CO)C(=O)N[C@@H](CO)C(=O)NCC(=O)N[C@@H](C)C(=O)N1CCC[C@H]1C(=O)N1CCC[C@H]1C(=O)N1CCC[C@H]1C(=O)N[C@@H](CO)C(N)=O)[C@@H](C)O [Compound 9]
GLP-1R/GCGR [1]: 2.9
EC50 [5]: 0.18 nM

CSCC[C@H](NC(=O)[C@H](CC(C)C)NC(=O)[C@H](Cc1c[nH]c2ccccc12)NC(=O)[C@H](CCC(N)=O)NC(=O)[C@@H](NC(=O)[C@H](Cc1ccccc1)NC(=O)[C@H](CC(=O)O)NC(=O)[C@H](CCC(N)=O)NC(=O)[C@H](C)NC(=O)[C@H](CCCNC(=N)N)NC(=O)[C@H](CCCNC(=N)N)NC(=O)[C@H](CCCCNC(=O)CCOCCOCCNC(=O)CCOCCOCCNC(=O)CC[C@H](NC(=O)CCCCCCCCCCCCCCCCC(=O)O)C(=O)O)NC(=O)[C@H](CC(=O)O)NC(=O)[C@H](CC(C)C)NC(=O)[C@H](Cc1ccc(O)cc1)NC(=O)[C@H](CCCCN)NC(=O)[C@H](CO)NC(=O)[C@H](Cc1ccc(O)cc1)NC(=O)[C@H](CC(=O)O)NC(=O)[C@H](CO)NC(=O)[C@@H](NC(=O)[C@H](Cc1ccccc1)NC(=O)[C@@H](NC(=O)CNC(=O)[C@H](CCC(N)=O)NC(=O)[C@@H](CO)NC(=O)[C@@H](N)Cc1c[nH]cn1)[C@@H](C)O)[C@@H](C)O)C(C)C)C(=O)N[C@@H](CC(N)=O)C(=O)N[C@H](C(=O)NCC(=O)NCC(=O)N1CCC[C@H]1C(=O)N[C@@H](CO)C(=O)N[C@@H](CO)C(=O)NCC(=O)N[C@@H](C)C(=O)N1CCC[C@H]1C(=O)N1CCC[C@H]1C(=O)N1CCC[C@H]1C(=O)N[C@@H](CO)C(N)=O)[C@@H](C)O [Compound 11]
GLP-1R/GCGR [1]: 0.8
EC50 ([1]; read-out: GLP-1R (EC50)): 0.15 nM
EC50 [5]: 0.18 nM

CCCCCCCCCCCCCCCC(=O)N[C@@H](CCC(=O)NCCOCCOCCC(=O)NCCOCCOCCC(=O)NCCCC[C@H](NC(=O)[C@H](CO)NC(=O)[C@H](Cc1ccc(O)cc1)NC(=O)[C@H](CC(=O)O)NC(=O)[C@H](CO)NC(=O)[C@@H](NC(=O)[C@H](Cc1ccccc1)NC(=O)[C@@H](NC(=O)CNC(=O)[C@H](CCC(N)=O)NC(=O)[C@@H](CO)NC(=O)[C@@H](N)Cc1c[nH]cn1)[C@@H](C)O)[C@@H](C)O)C(=O)N[C@@H](CCCCN)C(=O)N[C@@H](CC(C)C)C(=O)N[C@@H](CC(=O)O)C(=O)NC(C)(C)C(=O)N[C@@H](CCCNC(=N)N)C(=O)N[C@@H](CCCNC(=N)N)C(=O)N[C@@H](C)C(=O)N[C@@H](CCC(N)=O)C(=O)N[C@@H](CC(=O)O)C(=O)N[C@@H](Cc1ccccc1)C(=O)N[C@H](C(=O)N[C@@H](CCC(N)=O)C(=O)N[C@@H](Cc1c[nH]c2ccccc12)C(=O)N[C@@H](CC(C)C)C(=O)N[C@@H](CCSC)C(=O)N[C@@H](CC(N)=O)C(=O)N[C@H](C(=O)NCC(=O)NCC(=O)N1CCC[C@H]1C(=O)N[C@@H](CO)C(=O)N[C@@H](CO)C(=O)NCC(=O)N[C@@H](C)C(=O)N1CCC[C@H]1C(=O)N1CCC[C@H]1C(=O)N1CCC[C@H]1C(=O)N[C@@H](CO)C(N)=O)[C@@H](C)O)C(C)C)C(=O)O [Compound 17]
GLP-1R/GCGR [1]: 1.2
EC50 [5]: 0.58 nM
